Experiment [1] has as its system cellules de la Lignée L.1210. The experiment can be described thus: Cytostatic activity: growth inhibition of L.1210 cells. The class given is cell-based. Conditions: L.1210 cells in culture. As to the method:
Cette activité est étudiée en mesurant le pouvoir d'in- hibition de la croissance de cellules de la Lignée L.1210 cultivée sur un milieu approprié.
Ce pouvoir est exprimé en poids de produit par 10^5 cellules inhibant de 50 % la croissance cellulaire.
Pour la substance de l'exemple 5, ce poids est de 6 µg/10^5 cellules, pour celle de l'exemple 7, il est de 4 µg/10^5 cellules.

The test system of a further experiment is facteurs de coagulation. The experiment can be described thus: Activity on coagulation factors: thrombo-elastography on blood samples (terms r and k). The text has this: L'étude est faite par thrombo-élastographie sur des échantillons sanguins auxquels sont ajoutées des quantités dosées des substances actives selon l'invention.
La mesure des termes r (temps d'apparition de la fibrine pendant lequel la viscosité ne varie pas) et k (temps d'accroissement de la viscosité jusqu'à une valeur donnée) montre, pour les échantillons traités à l'aide de la substance de l'exemple 7, une augmentation de 32 % pour 10/ug/ml et de 45 % pour 100/ug/ml.

A further experiment has as its system vomissements. The experiment can be described thus: Antiemetic activity: apomorphine-induced vomiting in dogs. It is filed as in vivo, chiens Beagle. Conditions: 1 mg/kg intramuscular, 30 min before apomorphine 0,1 mg/kg s.c., vomiting counted for the next half hour. As to the method: Les essais sont effectués sur des chiens Beagle adultes de 8 à 12 kg, qui sont mis à jeun pendant 24 heures.
Chaque animal est son propre témoin, un essai sans protection étant réalisé 8 jours avant l'essai proprement dit en présence de la substance étudiée.
Les substances étudiées sont administrées dans du soluté isotonique à raison de 1 mg/kg et par voie intramusculaire. 30 minutes après, on injecte l'apomorphine par voie sous-cutanée, à raison de 0,1 mg/kg., et l'on dénombre les vomissements dans la demi-heure suivante.
Dans ces conditions, on a observé, pour les substances des exemples 22, 24, 26 et 27, une réduction du nombre de vomissements qui est respectivement de 50,8 %, 28,2 %, 44,2 %, 47,6 %.

A further experiment has as its system fibrillation. Kind of experiment: Antifibrillant activity: chloroform-induced cardiac fibrillation in mice. The class given is in vivo, souris. Conditions: 100 mg/kg i.p., 15 min before chloroform exposure. As to the method: Pour ces essais, on utilise comme précédemment des lots de 10 souris auxquelles sont administrés, par voie intrapéritonéale, 0,5 ml d'une solution ou suspension de substance étudiée dans du soluté isotonique.
Les souris sont traitées suivant une méthode voisine de celle décrite par B. Vargaftig et J.L. Coignet (Eur. J. Pharmacol., 1969, 6, 49). Selon cette méthode, les souris sont soumises à une atmosphère chargée d'une quantité déterminée de chloroforme. Lorsque les mouvements respiratoires cessent, le thorax est ouvert et le coeur examiné pour l'observation des tremblements superficiels très rapides. La fibrillation est positive lorsque ces mouvements sont observés pendant plus de 5 secondes.
La substance étudiée est administrée à raison de 100 mg/kg 15 minutes avant l'exposition au chloroforme.
La protection observée pour les substances des exemples 22 et 27 est d'environ 30 %.

Experiment [2] relates to ulcères provoqués par immobilisation. Kind of experiment: Antiulcer activity: restraint (immobilisation) ulcer in rats. The class given is in vivo. Conditions: rat, 10 mg/kg i.p., compared with controls. The procedure: Elle est déterminée sur les ulcères provoqués par immobilisation chez le rat. La méthode de mesure est celle décrite par G. Narcisse (Thérapie, 1972, 27, 705). La substance est administrée par voie intrapéritonéale, à raison de 10 mg/kg.
Par comparaison avec des témoins, le pourcentage de protection, dans le cas du produit de l'exemple 22, est de 61,3 %.

Regarding `COc1ccccc1S(=O)(=O)CCCl` [Exemple 5], in experiment [1], the “poids de produit par 10^5 cellules inhibant de 50 % la croissance cellulaire” value stood at 6 µg/10^5 cellules. Consider `COc1ccc(Cl)cc1S(=O)(=O)CCCl` [Exemple 7], for which the “poids de produit par 10^5 cellules inhibant de 50 % la croissance cellulaire” value in experiment [1] is recorded as 4 µg/10^5 cellules. The “augmentation des termes r et k” value in the experiment with facteurs de coagulation (10/ug/ml added to blood samples) worked out at 32%; with facteurs de coagulation (100/ug/ml added to blood samples), 45%. Take `COc1ccc(Cl)cc1S(=O)(=O)CCN1CCOCC1` [Exemple 22]: the “réduction du nombre de vomissements” value in the experiment with vomissements is 50,8%. In the experiment on fibrillation, the “protection (fibrillation)” value is ~30%. The pourcentage de protection in experiment [2] was 61,3%.

In the case of `COc1ccc(Cl)cc1S(=O)(=O)CCN1CCCCC1` [Exemple 24], the “réduction du nombre de vomissements” value in the experiment with vomissements is 28,2%. Still for that read-out and setting: to `COc1ccc(Cl)cc1S(=O)(=O)CCCN1CCCC1` [Exemple 26] belongs 44,2%. For the compound `COc1ccc(Cl)cc1S(=O)(=O)CCCN1CCCCC1` [Exemple 27], the “réduction du nombre de vomissements” value with vomissements is on record as 47,6%. In addition, the “protection (fibrillation)” value in the experiment on fibrillation is recorded as ~30%.

For the origin of these results see patent publication EP0008269A1, “Medicines containing as active ingredients compounds of the benzene-sulfone type; compounds of this type and process for their preparation” (CHOAY S.A., priority 1978, dated 1980).
